Results reported in ChEMBL document CHEMBL1201862, “PubChem BioAssay data set” (2004).
Where “and” joins values, the source holds several entries; their conditions need not be identical. Identical values can stand only once.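 Five concentrations, 48 hours, 96-well plates. GI50: concentration for 50% inhibition of growth.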 Calls of active or inactive are those of the source. Cut-off read from the data, not from the text of the source: active = GI50 up to about 1.1 µM and inactive = higher.

Experiments:
Assay in all cases: NCI tumour cell line growth inhibition, 48 h
LOX IMVI = system: LOX IMVI
CAKI-1 = system: CAKI-1
RPMI-8226 = system: RPMI-8226
786-0 = system: 786-0
OVCAR-4 = system: OVCAR-4
SK-MEL-5 = system: SK-MEL-5
COLO 205 = system: COLO 205
SF-268 = system: SF-268
OVCAR-5 = system: OVCAR-5
UO-31 = system: UO-31
HOP-62 = system: HOP-62
SN12C = system: SN12C
A498 = system: A498
UACC-62 = system: UACC-62
A549 = system: A549
NCI-H460 = system: NCI-H460
DLD-1 = system: DLD-1
ACHN = system: ACHN
HCT-15 = system: HCT-15
SK-MEL-2 = system: SK-MEL-2
SK-OV-3 = system: SK-OV-3
M19-MEL = system: M19-MEL
Malme-3M = system: Malme-3M
SNB-78 = system: SNB-78
HCC 2998 = system: HCC 2998
NCI-H23 = system: NCI-H23
SW-620 = system: SW-620
SF-539 = system: SF-539
LXFL 529 = system: LXFL 529
SK-MEL-28 = system: SK-MEL-28
IGROV-1 = system: IGROV-1
KM12 = system: KM12
OVCAR-8 = system: OVCAR-8
TK-10 = system: TK-10
KM-20L2 = system: KM-20L2
U-251 = system: U-251
SNB-19 = system: SNB-19
M14 = system: M14
DMS-273 = system: DMS-273
HT-29 = system: HT-29
HCT-116 = system: HCT-116
OVCAR-3 = system: OVCAR-3
DMS-114 = system: DMS-114
K562 = system: K562
NCI-H226 = system: NCI-H226
HL-60 = system: HL-60
SF-295 = system: SF-295
UACC-257 = system: UACC-257
SR = system: SR
MOLT-4 = system: MOLT-4
EKVX = system: EKVX
SNB-75 = system: SNB-75
CCRF-CEM = system: CCRF-CEM
HOP-92 = system: HOP-92
NCI-H522 = system: NCI-H522
DU-145 = system: DU-145
MDA-N = system: MDA-N
NCI/ADR-RES = system: NCI/ADR-RES
BT-549 = system: BT-549
Hs-578T = system: Hs-578T
PC-3 = system: PC-3
MCF7 = system: MCF7
RXF 393 = system: RXF 393
T47D = system: T47D
MDA-MB-435 = system: MDA-MB-435
MDA-MB-231 = system: MDA-MB-231
XF498 = system: XF498

Measured: GI50

CSC1CC2C(CC1(C)O)C2(C)C (configuration not stated)
> 100 µM: HCT-15
inactive: LOX IMVI 95.5 µM | CAKI-1 > 100 µM | RPMI-8226 > 100 µM | 786-0 > 100 µM | OVCAR-4 > 100 µM | SK-MEL-5 > 100 µM and 53.8 µM | COLO 205 > 100 µM | SF-268 > 100 µM | OVCAR-5 > 100 µM | UO-31 > 100 µM and 65 µM | HOP-62 > 100 µM | SN12C > 100 µM | A498 > 100 µM | UACC-62 > 100 µM | A549 > 100 µM | NCI-H460 > 100 µM | DLD-1 > 100 µM | ACHN > 100 µM | SK-MEL-2 > 100 µM | SK-OV-3 > 100 µM | M19-MEL > 100 µM | Malme-3M > 100 µM | SNB-78 > 100 µM | HCC 2998 > 100 µM | NCI-H23 > 100 µM | SW-620 > 100 µM | SF-539 > 100 µM | LXFL 529 > 100 µM | SK-MEL-28 > 100 µM | IGROV-1 > 100 µM | KM12 > 100 µM | OVCAR-8 > 100 µM | TK-10 > 100 µM | KM-20L2 > 100 µM and 74.8 µM | U-251 > 100 µM | SNB-19 > 100 µM | M14 > 100 µM | DMS-273 > 100 µM and 69.3 µM | HT-29 > 100 µM | HCT-116 > 100 µM

CCCCCn1cnc2c1S(=O)(=O)N(C)C(NC(=O)c1ccccc1)=N2
inactive: LOX IMVI > 100 µM | OVCAR-3 > 100 µM | CAKI-1 > 100 µM | DMS-114 > 100 µM | RPMI-8226 > 100 µM | 786-0 > 100 µM | OVCAR-4 > 100 µM | SK-MEL-5 > 100 µM | COLO 205 > 100 µM | K562 > 100 µM | SF-268 > 100 µM | NCI-H226 > 100 µM | UO-31 > 100 µM | HOP-62 > 100 µM | HL-60 > 100 µM | SN12C > 100 µM | A498 > 100 µM | UACC-62 > 100 µM | A549 > 100 µM | SF-295 > 100 µM | NCI-H460 > 100 µM | UACC-257 > 100 µM | DLD-1 > 100 µM | SR > 100 µM | ACHN > 100 µM | MOLT-4 > 100 µM | SK-MEL-2 > 100 µM | EKVX > 100 µM | SK-OV-3 > 100 µM | SNB-75 > 100 µM | M19-MEL > 100 µM | CCRF-CEM > 100 µM | SNB-78 > 100 µM | HCC 2998 > 100 µM | NCI-H23 > 100 µM | SW-620 > 100 µM | HOP-92 > 100 µM | SF-539 > 100 µM | LXFL 529 > 100 µM | SK-MEL-28 > 100 µM | IGROV-1 > 100 µM | KM12 > 100 µM | OVCAR-8 > 100 µM | TK-10 > 100 µM | KM-20L2 > 100 µM | U-251 > 100 µM | SNB-19 > 100 µM | NCI-H522 > 100 µM | DMS-273 > 100 µM | HT-29 > 100 µM | HCT-116 > 100 µM
> 100 µM: HCT-15

COC(=O)c1cc2cc3c(c(O)c2c(=O)o1)O[C@@]1(Oc2c(O)c4c(c(O)c2[C@H]1OC1CC(OC)C(O)C(C)O1)C(=O)C=C(OC)C4=O)[C@H](O)C3 (some centres not stated)
active: LOX IMVI 0.492 µM | DU-145 0.822 µM | CAKI-1 0.448 µM | RPMI-8226 0.547 µM | 786-0 0.991 µM | OVCAR-4 0.604 µM | SK-MEL-5 0.966 µM | K562 0.841 µM | SF-268 0.986 µM | HL-60 0.719 µM | A498 0.789 µM | UACC-62 0.55 µM | A549 1.05 µM | SF-295 0.724 µM | NCI-H460 0.685 µM | SR 0.458 µM | ACHN 0.855 µM | MOLT-4 0.748 µM | RXF 393 0.726 µM | SNB-75 0.652 µM | CCRF-CEM 0.889 µM | NCI-H23 0.94 µM | SW-620 1.07 µM | SF-539 0.908 µM | SK-MEL-28 0.659 µM | IGROV-1 0.705 µM | KM12 0.904 µM | OVCAR-8 1.06 µM | U-251 0.785 µM | SNB-19 1 µM | MDA-MB-435 1.09 µM | HCT-116 0.735 µM
0.908 µM: HCT-15
inactive: OVCAR-3 1.45 µM | MDA-N 1.22 µM | NCI/ADR-RES 4.62 µM | COLO 205 1.51 µM | OVCAR-5 1.84 µM | NCI-H226 1.32 µM | UO-31 1.37 µM | HOP-62 1.14 µM | BT-549 1.3 µM | SN12C 1.3 µM | Hs-578T 1.17 µM | PC-3 1.36 µM | UACC-257 2 µM | MCF7 1.14 µM | SK-MEL-2 1.53 µM | EKVX 1.74 µM | SK-OV-3 1.85 µM | Malme-3M 1.28 µM | HCC 2998 1.2 µM | HOP-92 2.41 µM | T47D 1.5 µM | TK-10 2.07 µM | NCI-H522 2.09 µM | M14 1.17 µM | MDA-MB-231 1.27 µM | HT-29 1.14 µM

Cc1cccc(C)c1NC(=O)C(=O)Cc1nc2ccccc2s1
inactive: LOX IMVI > 100 µM | OVCAR-3 > 100 µM | CAKI-1 > 100 µM | DMS-114 > 100 µM | RPMI-8226 > 100 µM | 786-0 > 100 µM | OVCAR-4 > 100 µM | SK-MEL-5 > 100 µM | COLO 205 > 100 µM | K562 > 100 µM | SF-268 > 100 µM | OVCAR-5 > 100 µM | NCI-H226 > 100 µM | UO-31 > 100 µM | HOP-62 > 100 µM | HL-60 > 100 µM | SN12C > 100 µM | A498 > 100 µM | UACC-62 > 100 µM | A549 > 100 µM | SF-295 > 100 µM | NCI-H460 > 100 µM | UACC-257 > 100 µM | DLD-1 > 100 µM | ACHN > 100 µM | SK-MEL-2 > 100 µM | RXF 393 50.9 µM | EKVX > 100 µM | SK-OV-3 > 100 µM | SNB-75 27.5 µM | M19-MEL > 100 µM | CCRF-CEM > 100 µM | Malme-3M > 100 µM | SNB-78 > 100 µM | HCC 2998 > 100 µM | NCI-H23 > 100 µM | SW-620 > 100 µM | HOP-92 > 100 µM | SF-539 > 100 µM | LXFL 529 > 100 µM | SK-MEL-28 > 100 µM | IGROV-1 > 100 µM | KM12 > 100 µM | OVCAR-8 > 100 µM | TK-10 > 100 µM | XF498 > 100 µM | KM-20L2 > 100 µM | U-251 > 100 µM | SNB-19 > 100 µM | NCI-H522 > 100 µM | M14 > 100 µM | DMS-273 > 100 µM | HT-29 > 100 µM | HCT-116 > 100 µM
> 100 µM: HCT-15

Cc1ccccc1C(=O)C1CCCCC1O (configuration not stated)
inactive: LOX IMVI > 100 µM | OVCAR-3 > 100 µM | CAKI-1 > 100 µM | DMS-114 > 100 µM | 786-0 > 100 µM | OVCAR-4 > 100 µM | SK-MEL-5 > 100 µM | K562 > 100 µM | SF-268 > 100 µM | OVCAR-5 > 100 µM | NCI-H226 > 100 µM | UO-31 > 100 µM | HOP-62 > 100 µM | HL-60 > 100 µM | SN12C > 100 µM | UACC-62 > 100 µM | A549 > 100 µM | ACHN > 100 µM | MOLT-4 > 100 µM | SK-MEL-2 > 100 µM | RXF 393 > 100 µM | EKVX > 100 µM | SK-OV-3 > 100 µM | SNB-75 > 100 µM | Malme-3M > 100 µM | SNB-78 23.8 µM | HCC 2998 > 100 µM | NCI-H23 > 100 µM | SW-620 > 100 µM | HOP-92 > 100 µM | LXFL 529 > 100 µM | IGROV-1 > 100 µM | KM12 > 100 µM | TK-10 > 100 µM | KM-20L2 > 100 µM | U-251 > 100 µM | SNB-19 > 100 µM | M14 > 100 µM | HCT-116 > 100 µM
> 100 µM: HCT-15
